According to US20200352918A1, “COMPOUNDS AND METHODS FOR TREATING OR PREVENTING FIBROSIS” (priority 2019, published 2020):

Test system: iFA phenotype of mesenchymal-like cells on 13 kPa hydrogels
Test: iFA-prevention phenotypic high-content drug screen (iFA model)
Format: cell-based, human
Protocol: Mesenchymal-like cells were cultured on 13 kPa functionalized polyacrylamide gels that were prepared as follows. 187.5 μl of 40% acrylamide, 60 μl of 2% bis-acrylamide and 8.55 μl of sodium bisulfate in a final volume of 990 μl of water was incubated for 20 min at room temperature to degas the mixture. To this mixture, 0.10% ammonium persulfate and 0.15% TEMED were added, mixed and 100 μl of the solution was added onto a 0.4% 3-(Trimethoxysily) propyl methacrylate pH 3.5 treated coverslip. A 2% dimethyl dichlorosilane in chloroform treated round glass coverslip was then inverted on the acrylamide solution and allowed to polymerize for 15 min between the two surfaces. The top coverslip was gently removed, and the bottom coverslips with the hydrogel were transferred to appropriate multi-well low adherent tissue culture plate containing coupling buffer (0.1 M sodium phosphate dibasic, 0.1 M sodium phosphate monobasic) pH 8. To functionalize the hydrogel, 1 part of 0.1 M p-benzoquinone in dioxane was added to the hydrogels containing 4 parts of coupling buffer and incubated at 37° C. for 30 min. The gel was then successively washed with 20% dioxane in water, water, 0.1 M sodium acetate buffer at pH 4.0 containing 1.0 M sodium chloride, 0.1 M sodium bicarbonate solution at pH 8.5 containing 1.0 M sodium chloride, and finally with coupling buffer at pH 7.5. The hydrogels were then coated with 0.1% gelatin for 2 hrs prior to seeding the cells. Cells were seeded at a density of 3000 cells/cm^2.
A phenotypic high-content drug screen was prepared to identify compounds capable of preventing the iFA phenotype in a 96-well format. An ImageXpress XL high-throughput imager with a 4× Plan objective (N/A 0.20) was used with image based focusing. Briefly, 100 μL media were plated in each well of 96 well plate using a Thermo Multidrop non-contact dispenser. Using a custom V&P pin tool mounted to a Beckman FX liquid handler, 1.5 μL compounds or DMSO were added. Mesenchymal-like cells were added as a suspension using the Multidrop at a density of 3.5×10^3 cells/well. The resulting compound concentration was 10 μM. Cells were imaged after 7 days of incubation at 37° C. and 5% CO2: A final of 0.5 μg/ml of Calcein AM and/or 10 μg/ml propidium iodide (viability dye) with 1 μg/ml Hoechst 33342 were added and imaged using the ImageXpress XL system. Data mining was performed using a custom module consisting of the following steps: The image background was removed using a top-hat filter with 25 μm round shape polisher. Next, cellular aggregates and individual spindle-shaped cells were identified. Aggregates of cells were defined by size with a cut-off of 60 to 200 micron and an intensity of at least 200 gray scales over background. Individual spindle-shaped cells were identified as smaller objects with cut-offs from 15 to 100 micron and a lower intensity of at least 70 gray scales over background.
Additional morphometric measurements were made by counting labeled cell nuclei and measuring total area covered with cells per well. The data resulting from the screen were batch exported through MetaXpress and uploaded into a Collaborative Drug Discovery (CDD) cloud based database (Ekins and Bunin, 2013, Methods in molecular biology 993, 139-154.). Hits were selected on a cut-off of more than 3 standard deviations from mean using data normalized to reference wells in each plate. IC50 values (the half maximal inhibitory concentration) from confirmation experiments were calculated from dose-response signal curves using the Prism software (GraphPad Software).
Signal-to-background (S/B) ratio, standard variation and variation coefficients were calculated as the signal of DMSO treated wells divided by the signal of the hit compound (AA5) treated wells. […]

## Cc1c(C(=O)Nc2nc3ccccc3s2)sc2nc3cc4c(cc3cc12)OCO4 [AA5]
0.6 μM-10 μM AA5, Calcein AM / Hoechst 33342 (FIG. 17A)
  Prevention of the iFA phenotype: Full prevention of phenotype was seen at low micromolar concentrations
20 point dose course, picomolar to millimolar
  Dose response: +++ (+++ = strong effect)
Homo sapiens, FIG. 16B, read-out: IC50 (dose response, iFA phenotype)
  IC50: 0.9 µM
Assay repeated with compound sourced commercially or from additional library materials
  Efficacy in secondary screen: +++ (+++ = strong effect)
Library compound plated with cells on day 1 on hydrogel, phenotype on day 7, 10 μM
  Efficacy in primary screen: +++ (+++ = strong effect)
